Legend:
Assay type in all cases: biochemical
adenosine A2B receptor = adenosine A2B receptor (Homo sapiens (Human), UniProt P29275); assay: Adenosine receptor activity assay (Table 1), A2B activity; settings: for Ratio: A2A activity to the A2B activity, A2A/A2B; for IC50: read-out: Ave A2B cAMP IC50
adenosine A2A receptor = adenosine A2A receptor (Homo sapiens (Human), UniProt P29274); assay: Adenosine receptor activity assay (Table 1), A2A activity; settings: read-out: Ave A2A cAMP IC50
adenosine A1 receptor = adenosine A1 receptor (Homo sapiens (Human), UniProt P30542); assay: Adenosine receptor activity assay (Table 1), A1 cAMP
Chain of adenosine A1 receptor (P30542 whole entry): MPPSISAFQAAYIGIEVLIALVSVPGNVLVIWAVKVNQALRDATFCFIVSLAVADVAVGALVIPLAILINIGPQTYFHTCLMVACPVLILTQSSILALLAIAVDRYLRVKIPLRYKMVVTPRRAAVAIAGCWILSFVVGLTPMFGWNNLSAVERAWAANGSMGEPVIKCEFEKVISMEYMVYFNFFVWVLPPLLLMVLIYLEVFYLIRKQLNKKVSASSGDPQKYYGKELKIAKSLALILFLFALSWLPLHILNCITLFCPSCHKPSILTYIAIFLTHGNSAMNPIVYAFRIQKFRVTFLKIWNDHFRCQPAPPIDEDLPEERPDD
Protocol: (§1) Table 1. Compounds (e.g., Adenosine Receptor modulators) and activity assay results. The legend is as follows: A=<10 nM; B=10-50 nM; C=50-100 nM; D=100-500; and E=>500 nM. The ratio corresponds to the A2A activity to the A2B activity; or A2A/A2B.

adenosine A3 receptor = adenosine A3 receptor (Homo sapiens (Human), UniProt P0DMS8); assay: Adenosine receptor activity assay (Table 1), A3 cAMP
Chain of adenosine A3 receptor (P0DMS8 whole entry): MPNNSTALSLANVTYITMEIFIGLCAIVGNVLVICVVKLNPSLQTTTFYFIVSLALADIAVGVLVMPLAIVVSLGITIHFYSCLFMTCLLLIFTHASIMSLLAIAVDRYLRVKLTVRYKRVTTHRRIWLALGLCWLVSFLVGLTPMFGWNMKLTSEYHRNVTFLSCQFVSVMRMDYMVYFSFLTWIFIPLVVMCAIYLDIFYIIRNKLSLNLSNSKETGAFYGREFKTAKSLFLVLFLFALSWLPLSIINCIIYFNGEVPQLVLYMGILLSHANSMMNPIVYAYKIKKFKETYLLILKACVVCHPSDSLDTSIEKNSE
Protocol: as §1

Chain of adenosine A2A receptor (P29274 whole entry): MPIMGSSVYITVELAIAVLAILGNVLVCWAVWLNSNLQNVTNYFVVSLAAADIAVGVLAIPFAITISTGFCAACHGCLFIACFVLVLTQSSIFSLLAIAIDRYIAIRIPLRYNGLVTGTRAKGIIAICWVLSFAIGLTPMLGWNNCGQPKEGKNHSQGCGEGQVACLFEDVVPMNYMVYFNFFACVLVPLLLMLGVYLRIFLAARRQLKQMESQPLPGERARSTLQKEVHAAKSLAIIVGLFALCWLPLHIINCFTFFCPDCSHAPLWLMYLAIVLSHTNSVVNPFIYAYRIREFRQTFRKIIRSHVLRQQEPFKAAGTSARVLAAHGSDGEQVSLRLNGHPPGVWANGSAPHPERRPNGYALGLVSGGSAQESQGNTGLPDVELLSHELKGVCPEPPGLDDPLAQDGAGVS
Chain of adenosine A2B receptor (P29275 whole entry): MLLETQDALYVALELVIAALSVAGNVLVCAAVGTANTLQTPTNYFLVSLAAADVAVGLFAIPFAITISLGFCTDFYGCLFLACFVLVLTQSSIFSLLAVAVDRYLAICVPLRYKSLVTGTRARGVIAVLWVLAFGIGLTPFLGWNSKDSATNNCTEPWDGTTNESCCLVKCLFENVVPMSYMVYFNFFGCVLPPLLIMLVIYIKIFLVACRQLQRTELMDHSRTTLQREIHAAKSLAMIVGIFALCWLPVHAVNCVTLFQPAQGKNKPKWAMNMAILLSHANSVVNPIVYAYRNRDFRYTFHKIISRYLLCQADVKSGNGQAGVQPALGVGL

Ratio (adenosine A2B receptor) | IC50 (adenosine A2B receptor) [nM] | IC50 (adenosine A2A receptor) [nM] | IC50 (adenosine A1 receptor) [nM] | IC50 (adenosine A3 receptor) [nM] | Compound
1.92 | 10 to 50 | 10 to 50 | > 500 | > 500 | C[C@H](Nc1nc(C(=O)N2CC(NC(=O)CC(C)(C)C)C2)c2sccc2n1)c1cncc(F)c1 [Example Z557, (S)—N-(1-(2-((1-(5-Fluoropyridin-3-yl)ethyl)amino)thieno[3,2-d]pyrimidine-4-carbonyl)azetidin-3-yl)-3,3-dimethylbutanamide]
3.43 | < 10 | 10 to 50 | > 500 | > 500 | CC(C)C(=O)NC1CN(C(=O)c2nc(N[C@@H](C)c3cncc(F)c3)nc3ccsc23)C1 [Example Z558, (S)—N-(1-(2-((1-(5-Fluoropyridin-3-yl)ethyl)amino)thieno[3,2-d]pyrimidine-4-carbonyl)azetidin-3-yl)isobutyramide]
1.93 | 10 to 50 | 10 to 50 | > 500 | 100 to 500 | Cc1csc2c(C(=O)N3CC(NC(=O)C(C)(C)C)C3)nc(N[C@@H](C)c3ccccn3)nc12 [Example Z559, (S)—N-(1-(7-Methyl-2-((1-(pyridin-2-yl)ethyl)amino)thieno[3,2-d]pyrimidine-4-carbonyl)azetidin-3-yl)pivalamide]
59.47 | 50 to 100 | > 500 | > 500 | > 500 | CN[C@@H]1CCN(C(=O)c2nc(N[C@@H](C)c3cncc(F)c3)nc3cc(C)sc23)C1 [Example Z560, (2-(((S)-1-(5-Fluoropyridin-3-yl)ethyl)amino)-6-methylthieno[3,2-d]pyrimidin-4-yl)((R)-3-(methylamino)pyrrolidin-1-yl)methanone]
127.97 | 10 to 50 | > 500 | > 500 | > 500 | Cc1cc2nc(N[C@@H](C)c3cncc(F)c3)nc(C(=O)NCCC3CCN(C)CC3)c2s1 [Example Z562, (S)-2-((1-(5-Fluoropyridin-3-yl)ethyl)amino)-6-methyl-N-(2-(1-methylpiperidin-4-yl)ethyl)thieno[3,2-d]pyrimidine-4-carboxamide]
1.51 | 10 to 50 | 10 to 50 | > 500 | > 500 | C[C@H](Nc1nc(C(=O)N2CC(CC(=O)NC(C)(C)C)C2)c2sccc2n1)c1cncc(F)c1 [Example Z571, (S)—N-(tert-Butyl)-2-(1-(2-((1-(5-fluoropyridin-3-yl)ethyl)amino)thieno[3,2-d]pyrimidine-4-carbonyl)azetidin-3-yl)acetamide]
3.44 | 10 to 50 | 100 to 500 | > 500 | > 500 | Cc1cc2nc(N[C@@H](C)c3cncc(F)c3)nc(C(=O)N3CC(C(=O)OC(C)(C)C)C3)c2s1 [Example Z573, tert-Butyl (S)-1-(2-((1-(5-fluoropyridin-3-yl)ethyl)amino)-6-methylthieno[3,2-d]pyrimidine-4-carbonyl)azetidine-3-carboxylate]
6.37 | 10 to 50 | 50 to 100 | > 500 | > 500 | C[C@H](Nc1nc(C(=O)N2CC(CNC(=O)N(C)C)C2)c2sccc2n1)c1cncc(F)c1 [Example Z577, (S)-3-((1-(2-((1-(5-Fluoropyridin-3-yl)ethyl)amino)thieno[3,2-d]pyrimidine-4-carbonyl)azetidin-3-yl)methyl)-1,1-dimethylurea]
4.95 | 10 to 50 | 50 to 100 | > 500 | > 500 | CC(C)C(=O)NCC1CN(C(=O)c2nc(N[C@@H](C)c3cncc(F)c3)nc3ccsc23)C1 [Example Z578, (S)—N-((1-(2-((1-(5-Fluoropyridin-3-yl)ethyl)amino)thieno[3,2-d]pyrimidine-4-carbonyl)azetidin-3-yl)methyl)isobutyramide]
1.19 | 10 to 50 | 10 to 50 | > 500 | 100 to 500 | Cc1cc2nc(N[C@@H](C)c3cncc(F)c3)nc(C(=O)N3CC(CC(=O)OC(C)(C)C)C3)c2s1 [Example Z580, tert-Butyl (S)-2-(1-(2-((1-(5-Fluoropyridin-3-yl)ethyl)amino)-6-methylthieno[3,2-d]pyrimidine-4-carbonyl)azetidin-3-yl)acetate]
1.68 | 10 to 50 | 10 to 50 | > 500 | > 500 | C[C@H](Nc1nc(C(=O)N2CC(CNC(=O)OCC(C)(C)C)C2)c2sccc2n1)c1cncc(F)c1 [Example Z581, Neopentyl (S)-((1-(2-((1-(5-fluoropyridin-3-yl)ethyl)amino)thieno[3,2-d]pyrimidine-4-carbonyl)azetidin-3-yl)methyl)carbamate]
0.37 | 10 to 50 | 10 to 50 | > 500 | > 500 | C[C@H](Nc1nc(C(=O)N2CC(NC(=O)OC(C)(C)C)C2)c2sccc2n1)c1cncc(F)c1 [Example Z583, tert-Butyl (S)-(1-(2-((1-(5-fluoropyridin-3-yl)ethyl)amino)thieno[3,2-d]pyrimidine-4-carbonyl)azetidin-3-yl)carbamate]
21.44 | 10 to 50 | 100 to 500 | > 500 | > 500 | CNC(=O)N1CCN(C(=O)c2nc(N[C@@H](C)c3cncc(F)c3)nc3ccsc23)C1 [Example Z585, (S)-3-(2-((1-(5-Fluoropyridin-3-yl)ethyl)amino)thieno[3,2-d]pyrimidine-4-carbonyl)-N-methylimidazolidine-1-carboxamide]

The next lines start with the compound.

Compound | Ratio (adenosine A2B receptor) | IC50 (adenosine A2B receptor) [nM] | IC50 (adenosine A2A receptor) [nM] | IC50 (adenosine A1 receptor) [nM] | IC50 (adenosine A3 receptor) [nM]
Cc1cc2nc(N[C@@H](C)c3cncc(F)c3)nc(C(=O)N3CC[C@H](CN)C3)c2s1 [Example Z554, ((R)-3-(Aminomethyl)pyrrolidin-1-yl)(2-(((S)-1-(5-fluoropyridin-3-yl)ethyl)amino)-6-methylthieno[3,2-d]pyrimidin-4-yl)methanone] | 547.59 | < 10 | > 500 | > 500 | > 500
CN[C@H]1CCN(C(=O)c2nc(N[C@@H](C)c3cncc(F)c3)nc3cc(C)sc23)C1 [Example Z561, (2-(((S)-1-(5-Fluoropyridin-3-yl)ethyl)amino)-6-methylthieno[3,2-d]pyrimidin-4-yl)((S)-3-(methylamino)pyrrolidin-1-yl)methanone] | 140.19 | 50 to 100 | > 500 | > 500 | > 500
Cc1cc2nc(N[C@@H](C)c3cncc(F)c3)nc(C(=O)N3CC(CS(C)(=O)=O)C3)c2s1 [Example Z575, (S)-(2-((1-(5-Fluoropyridin-3-yl)ethyl)amino)-6-methylthieno[3,2-d]pyrimidin-4-yl)(3-((methylsulfonyl)methyl)azetidin-1-yl)methanone] | 75.64 | < 10 | > 500 | > 500 | > 500
CNC(=O)NCC1CN(C(=O)c2nc(N[C@@H](C)c3cncc(F)c3)nc3ccsc23)C1 [Example Z576, (S)-1-((1-(2-((1-(5-Fluoropyridin-3-yl)ethyl)amino)thieno[3,2-d]pyrimidine-4-carbonyl)azetidin-3-yl)methyl)-3-methylurea] | 26.03 | < 10 | 100 to 500 | > 500 | > 500
C[C@H](Nc1nc(C(=O)N2CC(C(=O)NOC(C)(C)C)C2)c2sccc2n1)c1cncc(F)c1 [Example Z579, (S)—N-(tert-Butoxy)-1-(2-((1-(5-fluoropyridin-3-yl)ethyl)amino)thieno[3,2-d]pyrimidine-4-carbonyl)azetidine-3-carboxamide] | 1.29 | 50 to 100 | 50 to 100 | > 500 | > 500
Cc1cc2nc(N[C@@H](C)c3cncc(F)c3)nc(C(=O)N3CC(CNC(=O)CC(C)(C)C)C3)c2s1 [Example Z586, (S)—N-((1-(2-((1-(5-Fluoropyridin-3-yl)ethyl)amino)-6-methylthieno[3,2-d]pyrimidine-4-carbonyl)azetidin-3-yl)methyl)-3,3-dimethylbutanamide] | 2.27 | 10 to 50 | 50 to 100 | > 500 | > 500
Cc1cc2nc(N[C@@H](C)c3cncc(F)c3)nc(C(=O)N3CC(NC(=O)C(C)C)C3)c2s1 [Example Z588, (S)—N-(1-(2-((1-(5-Fluoropyridin-3-yl)ethyl)amino)-6-methylthieno[3,2-d]pyrimidine-4-carbonyl)azetidin-3-yl)isobutyramide] | 0.26 | 10 to 50 | < 10 | > 500 | 100 to 500
Cc1cc2nc(N[C@@H](C)c3cncc(F)c3)nc(C(=O)N3CC(NC(=O)OCC(C)(C)C)C3)c2s1 [Example Z591, Neopentyl (S)-(1-(2-((1-(5-fluoropyridin-3-yl)ethyl)amino)-6-methylthieno[3,2-d]pyrimidine-4-carbonyl)azetidin-3-yl)carbamate] | 0.14 | 10 to 50 | < 10 | > 500 | 10 to 50
Cc1cc2nc(N[C@@H](C)c3cncc(F)c3)nc(C(=O)N3CC(C(=O)NOC(C)(C)C)C3)c2s1 [Example Z592, (S)—N-(tert-Butoxy)-1-(2-((1-(5-fluoropyridin-3-yl)ethyl)amino)-6-methylthieno[3,2-d]pyrimidine-4-carbonyl)azetidine-3-carboxamide] | 4.67 | 10 to 50 | 50 to 100 | > 500 | > 500

Source: patent US11254686B1 (Corvus Pharmaceuticals, Inc., priority 2017, dated 2022)
